# What was measured:
# [1] = target: T1, Dual specificity mitogen-activated protein kinase kinase 3 (Homo sapiens) (UniProt P46734); experiment: Selectivity interaction (KinomeScan (DiscoverX)) EUB0000595a MAP2K3; settings: at 10 µM
# T1 sequence (whole entry): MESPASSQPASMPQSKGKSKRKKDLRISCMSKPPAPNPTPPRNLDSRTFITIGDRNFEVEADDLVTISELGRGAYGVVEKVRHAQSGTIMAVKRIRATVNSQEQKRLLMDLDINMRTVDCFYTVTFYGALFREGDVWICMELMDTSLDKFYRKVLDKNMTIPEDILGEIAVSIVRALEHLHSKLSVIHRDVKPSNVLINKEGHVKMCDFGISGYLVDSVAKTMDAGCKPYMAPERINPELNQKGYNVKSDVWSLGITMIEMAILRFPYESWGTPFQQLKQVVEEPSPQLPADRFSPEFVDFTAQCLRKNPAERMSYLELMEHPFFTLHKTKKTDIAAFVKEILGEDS
# [2] = target: T2, Rhodopsin kinase GRK1 (Homo sapiens) (UniProt Q15835); experiment: Selectivity interaction (KinomeScan (DiscoverX)) EUB0000695a GRK1; settings: at 100 nM
# T2 sequence (whole entry): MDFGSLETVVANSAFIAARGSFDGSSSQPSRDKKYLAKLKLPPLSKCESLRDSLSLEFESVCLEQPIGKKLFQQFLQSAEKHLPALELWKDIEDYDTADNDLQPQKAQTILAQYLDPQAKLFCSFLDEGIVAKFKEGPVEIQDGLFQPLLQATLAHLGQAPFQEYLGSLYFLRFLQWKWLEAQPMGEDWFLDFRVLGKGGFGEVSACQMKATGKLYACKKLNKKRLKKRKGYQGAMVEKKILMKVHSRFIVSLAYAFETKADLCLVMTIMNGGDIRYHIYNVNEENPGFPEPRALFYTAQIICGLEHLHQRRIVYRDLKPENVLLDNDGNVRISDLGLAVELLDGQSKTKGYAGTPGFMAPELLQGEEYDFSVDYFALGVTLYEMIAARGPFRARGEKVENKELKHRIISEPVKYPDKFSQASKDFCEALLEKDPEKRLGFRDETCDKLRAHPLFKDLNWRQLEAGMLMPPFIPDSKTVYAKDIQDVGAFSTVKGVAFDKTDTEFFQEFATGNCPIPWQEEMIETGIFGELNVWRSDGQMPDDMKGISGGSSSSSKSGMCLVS
# [3] = target: Fibroblast growth factor receptor 4 (Homo sapiens, UniProt P22455); experiment: Selectivity interaction (KinomeScan (DiscoverX)) EUB0001079a FGFR4; settings: at 1 µM
# Chain of Fibroblast growth factor receptor 4 (P22455 22-802 limits assumed): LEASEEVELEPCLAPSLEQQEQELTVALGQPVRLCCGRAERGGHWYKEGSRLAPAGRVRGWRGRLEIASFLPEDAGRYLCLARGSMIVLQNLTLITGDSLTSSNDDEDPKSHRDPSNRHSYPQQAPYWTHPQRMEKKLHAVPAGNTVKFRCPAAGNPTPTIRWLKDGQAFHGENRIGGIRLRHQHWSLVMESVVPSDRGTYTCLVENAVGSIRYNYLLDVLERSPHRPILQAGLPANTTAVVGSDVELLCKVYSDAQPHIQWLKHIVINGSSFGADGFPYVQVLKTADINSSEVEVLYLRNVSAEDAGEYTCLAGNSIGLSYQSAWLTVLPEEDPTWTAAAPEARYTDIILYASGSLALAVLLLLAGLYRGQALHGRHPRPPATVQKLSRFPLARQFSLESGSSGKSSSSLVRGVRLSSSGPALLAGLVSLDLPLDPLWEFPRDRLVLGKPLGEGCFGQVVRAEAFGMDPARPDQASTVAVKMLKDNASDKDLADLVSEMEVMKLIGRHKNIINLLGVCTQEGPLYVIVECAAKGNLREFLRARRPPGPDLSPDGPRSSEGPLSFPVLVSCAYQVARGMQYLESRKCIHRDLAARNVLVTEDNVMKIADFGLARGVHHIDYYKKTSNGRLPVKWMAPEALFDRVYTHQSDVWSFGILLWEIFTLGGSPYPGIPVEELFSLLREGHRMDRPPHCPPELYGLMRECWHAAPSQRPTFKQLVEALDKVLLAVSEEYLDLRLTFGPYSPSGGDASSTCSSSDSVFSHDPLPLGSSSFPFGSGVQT
# [4] = target: Cyclin-dependent kinase 8 (Homo sapiens, UniProt P49336); experiment: Selectivity interaction (KinomeScan (DiscoverX)) EUB0000666a CDK8; settings: at 10 µM
# Chain of Cyclin-dependent kinase 8 (P49336 whole entry): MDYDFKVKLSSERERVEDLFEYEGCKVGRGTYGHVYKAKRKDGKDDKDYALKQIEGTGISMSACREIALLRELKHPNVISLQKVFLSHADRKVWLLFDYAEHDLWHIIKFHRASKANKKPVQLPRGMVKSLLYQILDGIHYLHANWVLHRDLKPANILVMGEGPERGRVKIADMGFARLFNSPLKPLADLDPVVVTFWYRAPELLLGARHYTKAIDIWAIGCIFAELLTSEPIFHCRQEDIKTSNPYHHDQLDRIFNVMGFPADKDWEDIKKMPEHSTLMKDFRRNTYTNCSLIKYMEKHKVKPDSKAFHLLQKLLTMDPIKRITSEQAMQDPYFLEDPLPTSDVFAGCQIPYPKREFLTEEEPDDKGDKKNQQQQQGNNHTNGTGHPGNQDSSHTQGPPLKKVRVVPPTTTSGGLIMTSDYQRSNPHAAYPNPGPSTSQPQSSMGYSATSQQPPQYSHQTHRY
# [5] = target: T3, Cytoplasmic tyrosine-protein kinase BMX (Homo sapiens) (UniProt P51813); experiment: Selectivity interaction (Millipore kinase profiler) EUB0000124b BMX; settings: at 10 µM
# T3 sequence (whole entry): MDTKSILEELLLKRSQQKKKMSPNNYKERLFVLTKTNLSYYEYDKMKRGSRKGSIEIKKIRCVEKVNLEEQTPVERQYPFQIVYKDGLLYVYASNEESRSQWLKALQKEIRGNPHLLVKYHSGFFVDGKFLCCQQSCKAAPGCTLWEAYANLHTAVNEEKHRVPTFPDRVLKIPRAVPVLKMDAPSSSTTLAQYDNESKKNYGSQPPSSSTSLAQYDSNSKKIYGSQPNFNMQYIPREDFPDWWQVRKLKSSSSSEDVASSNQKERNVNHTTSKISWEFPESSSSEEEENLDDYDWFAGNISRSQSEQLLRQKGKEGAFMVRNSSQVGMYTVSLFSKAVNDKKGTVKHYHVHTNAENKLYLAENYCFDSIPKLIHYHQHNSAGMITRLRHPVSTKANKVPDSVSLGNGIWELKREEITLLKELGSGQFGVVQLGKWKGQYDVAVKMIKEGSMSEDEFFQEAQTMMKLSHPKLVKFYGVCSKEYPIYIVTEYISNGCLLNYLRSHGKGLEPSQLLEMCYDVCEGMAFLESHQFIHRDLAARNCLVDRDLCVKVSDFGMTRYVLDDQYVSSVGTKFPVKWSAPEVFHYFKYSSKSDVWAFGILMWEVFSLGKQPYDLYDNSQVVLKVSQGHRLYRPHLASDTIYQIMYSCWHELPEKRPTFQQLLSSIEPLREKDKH
# [6] = target: Cyclin-dependent kinase 4/cyclin D1 (Homo sapiens) (UniProt P11802+P24385); experiment: Selectivity interaction (KinomeScan (DiscoverX)) EUB0001619a CDK4; assay type: protein-complex assay; settings: at 1 µM
# [7] = target: T4, Mitogen-activated protein kinase kinase kinase 7 (Homo sapiens) (UniProt O43318); experiment: Selectivity interaction (KinomeScan (DiscoverX)) EUB0001619a MAP3K7; settings: at 1 µM
# T4 sequence (whole entry): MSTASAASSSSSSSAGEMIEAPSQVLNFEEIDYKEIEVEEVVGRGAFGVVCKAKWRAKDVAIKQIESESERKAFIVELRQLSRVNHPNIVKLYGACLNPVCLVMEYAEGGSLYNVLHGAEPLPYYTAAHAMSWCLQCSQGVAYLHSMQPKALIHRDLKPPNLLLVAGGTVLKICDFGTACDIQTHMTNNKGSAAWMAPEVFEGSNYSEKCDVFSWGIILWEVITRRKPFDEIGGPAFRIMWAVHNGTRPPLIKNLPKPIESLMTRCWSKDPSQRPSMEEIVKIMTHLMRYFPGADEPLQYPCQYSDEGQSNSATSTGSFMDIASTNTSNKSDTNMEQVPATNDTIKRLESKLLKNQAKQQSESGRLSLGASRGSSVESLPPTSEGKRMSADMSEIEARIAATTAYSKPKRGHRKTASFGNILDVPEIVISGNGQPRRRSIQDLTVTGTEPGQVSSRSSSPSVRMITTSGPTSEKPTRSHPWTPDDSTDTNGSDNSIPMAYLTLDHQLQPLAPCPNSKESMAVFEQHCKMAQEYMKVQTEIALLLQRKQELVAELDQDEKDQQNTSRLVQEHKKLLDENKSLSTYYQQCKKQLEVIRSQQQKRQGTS
# [8] = target: Calcium/calmodulin-dependent protein kinase kinase 2 (Homo sapiens) (UniProt Q96RR4); experiment: Selectivity interaction (ActivX KiNativ screen (kinase selectivity in THP-1 cell lysates)) EUB0000639a CAMKK2; assay type: subcellular; settings: lysate, at 0.01 µM
# Chain of Calcium/calmodulin-dependent protein kinase kinase 2 (Homo sapiens) (Q96RR4 2-588 limits assumed): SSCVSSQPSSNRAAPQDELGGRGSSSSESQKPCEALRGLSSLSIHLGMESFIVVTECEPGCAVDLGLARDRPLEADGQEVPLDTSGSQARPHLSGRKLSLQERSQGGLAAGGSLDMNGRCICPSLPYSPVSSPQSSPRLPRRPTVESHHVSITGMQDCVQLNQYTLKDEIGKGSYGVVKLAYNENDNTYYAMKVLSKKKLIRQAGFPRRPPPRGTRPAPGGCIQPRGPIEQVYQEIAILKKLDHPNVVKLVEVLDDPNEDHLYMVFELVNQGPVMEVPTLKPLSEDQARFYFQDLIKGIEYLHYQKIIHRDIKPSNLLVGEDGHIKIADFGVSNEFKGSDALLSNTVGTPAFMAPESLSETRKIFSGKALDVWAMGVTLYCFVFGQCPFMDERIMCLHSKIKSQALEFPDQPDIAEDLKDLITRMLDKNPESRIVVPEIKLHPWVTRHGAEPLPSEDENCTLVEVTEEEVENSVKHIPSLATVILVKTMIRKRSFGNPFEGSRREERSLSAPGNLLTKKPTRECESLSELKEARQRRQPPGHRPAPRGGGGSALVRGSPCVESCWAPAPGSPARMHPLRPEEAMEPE
# [9] = target: Phosphorylase b kinase gamma catalytic chain, skeletal muscle/heart isoform (Homo sapiens) (UniProt Q16816); experiment: Selectivity interaction (KinomeScan (DiscoverX)) EUB0000092b PHKG1; settings: at 10 µM
# Chain of Phosphorylase b kinase gamma catalytic chain, skeletal muscle/heart isoform (Homo sapiens) (Q16816 whole entry, looked up, canonical isoform): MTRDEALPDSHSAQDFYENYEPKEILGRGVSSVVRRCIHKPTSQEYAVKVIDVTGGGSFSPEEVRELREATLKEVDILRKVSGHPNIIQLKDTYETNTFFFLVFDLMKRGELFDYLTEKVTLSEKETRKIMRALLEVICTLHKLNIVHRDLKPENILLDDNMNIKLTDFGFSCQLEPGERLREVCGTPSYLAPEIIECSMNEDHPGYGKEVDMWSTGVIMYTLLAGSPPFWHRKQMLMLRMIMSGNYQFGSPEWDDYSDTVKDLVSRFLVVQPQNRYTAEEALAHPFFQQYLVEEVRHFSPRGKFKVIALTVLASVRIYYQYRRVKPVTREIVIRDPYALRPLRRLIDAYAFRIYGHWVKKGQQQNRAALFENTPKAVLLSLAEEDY
structure (smiles),measurement,setting,value
COCC(=O)NC/C=C/c1ccc2ncnc(Nc3ccc(Oc4ccc(C)nc4)c(C)c3)c2c1 [CP-724714],% of control,[1],100%
Cc1cc(F)c(C(=O)Nc2cccc(-c3nncn3C(C)C)n2)cc1-n1cnc(C2CC2)c1,% of control,[2],100%
Nc1cnc(N2CCc3cc(S(=O)(=O)Nc4c(F)cc(Cl)cc4F)cc(N4CCCC4=O)c32)nc1 [TP-020n],% of control,[3],100%
O=C(NOC[C@H](O)CO)c1ccc(F)c(F)c1Nc1ccc(I)cc1F,% of control,[4],100%
CC(=O)Nc1cccc(-n2c(=O)n(C3CC3)c(=O)c3c(Nc4ccc(I)cc4F)n(C)c(=O)c(C)c32)c1,% of control,[5],93%
N#Cc1cccc(-c2c[nH]c3ncnc(N4CCOCC4)c23)c1,% of control,[6],65%
same,% of control,[7],55%
CC[C@@H]1[C@H](F)C(=O)N[C@@H]1COc1nccc2cc(C(N)=O)c(OC)cc12 [ZIMLOVISERTIB],% of inhibition,[8],-0.8%
CCC(=O)N1CCN(c2ccc(-n3c(=O)ccc4cnc5ccc(-c6cnc7ccccc7c6)cc5c43)cc2C(F)(F)F)CC1,% of control,[9],100%
